Results taken from patent US7691856B2, “Thiadiazoledioxides and thiadiazoleoxides as CXC- and CC-chemokine receptor ligands” (Schering Corporation, priority 2002, dated 2010).

Tests used:
hCXCR2 = target: T1, hCXCR2 (Homo sapiens, UniProt P25025); assay: CXCR2 SPA assay ([125I]-IL-8 binding, hCXCR2-CHO membranes); conditions: [125I]-IL-8 binding to hCXCR2-CHO membranes
T1 construct: purchased Biosignal / Biosignal Packard; host or cells: CHO cells over-expressing hCXCR2 (membranes)
T1 sequence (P25025 1-360): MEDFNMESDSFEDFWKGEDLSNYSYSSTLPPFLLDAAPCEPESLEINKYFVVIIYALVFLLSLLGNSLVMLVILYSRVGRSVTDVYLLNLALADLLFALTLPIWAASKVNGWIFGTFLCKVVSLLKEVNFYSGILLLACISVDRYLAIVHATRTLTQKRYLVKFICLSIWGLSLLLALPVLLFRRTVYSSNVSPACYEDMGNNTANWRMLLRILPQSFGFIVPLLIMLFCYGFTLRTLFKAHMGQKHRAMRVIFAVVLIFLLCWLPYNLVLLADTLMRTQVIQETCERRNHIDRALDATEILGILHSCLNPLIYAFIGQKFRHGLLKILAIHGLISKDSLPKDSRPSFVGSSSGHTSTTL
Description: For each well of a 96 well plate, a reaction mixture of 4 μg hCXCR2-CHO overexpressing membranes (Biosignal) and 200 μg/well WGA-SPA beads (Amersham) in 100 μl was prepared in CXCR2 assay buffer (25 mM HEPES, pH 7.4, 2 mM CaCl2, 1 mM MgCl2). A 0.4 nM stock of ligand, [125I]-IL-8 (NEN), was prepared in the CXCR2 assay buffer. 20× stock solutions of test compounds were prepared in DMSO (Sigma). A 6× stock solution of GRO-α (R&D) was prepared in CXCR2 assay buffer. The above solutions were added to a 96-well assay plate (PerkinElmer or Corning) as follows: 10 μl test compound or DMSO, 40 ul CXCR2 assay buffer or GRO-α stock, 100 μl of reaction mixture, 50 μl of ligand stock (Final [Ligand]=0.1 nM). When 40× stock solutions of test compounds in DMSO were prepared, then the above protocol was used except instead 5 μl test compound or DMSO and 45 μl CXCR2 assay buffer were used. […]
For each 50 μl reaction, a working stock of 0.031 μg/μl hCXCR2-CHO over-expressing membranes with a specific activity of 0.4 pmol/mg (Biosignal Packard) and 2.5 μg/μl WGA-SPA beads (Perkin Elmer Life Sciences) was prepared in CXCR2 assay buffer (25 mM HEPES, pH 7.4, 2.0 mM CaCl2, 1 mM MgCl2) (Sigma). […] The assay plates were incubated for 2 hours before cpm/well were determined in a Microbeta Trilux counter (Perkin Elmer Life Sciences). IC50 values were quantified using nonlinear regression analysis in GraphPad Prism. […]
For each 200 μl reaction, a working stock of 0.02 μg/μl hCXCR2-CHO over-expressing membranes with a specific activity of 0.6 pmol/mg (Biosignal Packard) and 2 μg/μl WGA-SPA beads (Perkin Elmer Life Sciences) was prepared in CXCR2 assay buffer (25 mM HEPES, pH 7.4, 2.0 mM CaCl2, 1 mM MgCl2) (Sigma). […] The assay plates were incubated for 2 hours before cpm/well were determined in a Microbeta Trilux counter (Perkin Elmer Life Sciences). IC50 values were quantified using nonlinear regression analysis in GraphPad Prism.

hCXCR1 = target: T2, hCXCR1 (Homo sapiens, UniProt P25024); assay: CXCR1 SPA assay ([125I]-IL-8 binding, hCXCR1-CHO membranes); conditions: [125I]-IL-8 binding to hCXCR1-CHO membranes
T2 construct: purchased Biosignal / Biosignal Packard; alternatively Euroscreen; host or cells: CHO cells over-expressing hCXCR1 (membranes)
T2 sequence (P25024 1-350): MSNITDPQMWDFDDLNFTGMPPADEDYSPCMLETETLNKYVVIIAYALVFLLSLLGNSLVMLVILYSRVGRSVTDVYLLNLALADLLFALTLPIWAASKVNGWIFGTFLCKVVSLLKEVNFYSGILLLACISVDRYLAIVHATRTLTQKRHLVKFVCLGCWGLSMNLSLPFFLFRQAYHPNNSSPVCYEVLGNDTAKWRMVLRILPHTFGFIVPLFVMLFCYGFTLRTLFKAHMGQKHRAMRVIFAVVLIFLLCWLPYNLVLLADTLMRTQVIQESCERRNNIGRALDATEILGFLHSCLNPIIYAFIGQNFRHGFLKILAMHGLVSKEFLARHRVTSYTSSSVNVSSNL
Description: For each well of a 96 well plate, a reaction mixture of 10 μg hCXCR1-CHO overexpressing membranes (Biosignal) and 200 μg/well WGA-SPA beads (Amersham) in 100 μl was prepared in CXCR1 assay buffer (25 mM HEPES, pH 7.8, 2 mM CaCl2, 1 mM MgCl2, 125 mM NaCl, 0.1% BSA) (Sigma). A 0.4 nM stock of ligand, [125I]-IL-8 (NEN) was prepared in the CXCR1 assay buffer. 20× stock solutions of test compounds were prepared in DMSO (Sigma). A 6× stock solution of IL-8 (R&D) was prepared in […] assay buffer. The above solutions were added to a 96-well assay plate (PerkinElmer) as follows: 10 μl test compound or DMSO, 40 μl CXCR1 assay buffer or IL-8 stock, 100 μl of reaction mixture, 50 μl of ligand stock (Final [Ligand]=0.1 nM). The assay plates were shaken for 5 minutes on plate shaker, then incubated for 8 hours before cpm/well were determined in Microbeta Trilux counter (PerkinElmer). % Inhibition of Total binding-NSB (250 nM IL-8) was determined for IC50 values.
Alternative CXCR1 SPA Assay
Protocol using CXCR1-expressing membranes from Biosignal Packard
For each 50 μl reaction, a working stock of 0.25 μg/μl hCXCR1-CHO over-expressing membranes with a specific activity of 0.05 pmol/mg (Biosignal Packard) and 25 μg/μl WGA-SPA beads (Perkin Elmer Life Sciences) was prepared in CXCR1 assay buffer (25 mM HEPES, pH 7.8, 0.1 mM CaCl2, 1 mM MgCl2, 100 mM NaCl) (Sigma). […] The assay plates were incubated for 4 hours before cpm/well were determined in a Microbeta Trilux counter (Perkin Elmer Life Sciences). IC50 values were quantified using nonlinear regression analysis in GraphPad Prism. […]
For each 50 μl reaction, a working stock of 0.025 μg/μl hCXCR1-CHO over-expressing membranes with a specific activity of 3.47 pmol/mg (Euroscreen) and 5 μg/μl WGA-SPA beads (Perkin Elmer Life Sciences) was prepared in CXCR1 assay buffer (25 mM HEPES, pH 7.8, 2.0 mM CaCl2, 1 mM MgCl2, 125 mM NaCl) (Sigma). […] The assay plates were incubated for 4 hours before cpm/well were determined in a Microbeta Trilux counter (Perkin Elmer Life Sciences). […]

CCR7 = target: T3, CCR7 (Homo sapiens, UniProt P32248); assay: CCR7 [35S]GTPγS exchange assay (SPA, Ba/F3-CCR7 membranes)
T3 sequence (P32248 25-378): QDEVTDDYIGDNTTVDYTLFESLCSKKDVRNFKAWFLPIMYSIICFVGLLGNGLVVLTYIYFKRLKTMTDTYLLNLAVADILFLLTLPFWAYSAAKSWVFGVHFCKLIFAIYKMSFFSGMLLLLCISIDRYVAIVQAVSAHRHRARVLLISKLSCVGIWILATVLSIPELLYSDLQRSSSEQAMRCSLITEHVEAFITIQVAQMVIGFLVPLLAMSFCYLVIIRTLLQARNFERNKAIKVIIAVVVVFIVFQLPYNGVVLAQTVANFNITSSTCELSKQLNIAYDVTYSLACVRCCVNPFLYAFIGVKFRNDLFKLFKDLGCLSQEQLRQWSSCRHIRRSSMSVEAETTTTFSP
Description: CCR7 [^35S]GTPγS Exchange Assay.
The exchange of guanosine 5′-[γ-^35S]triphospate ([^35S]GTPγS, triethylammonium salt; specific activity 1250 Ci/mmol; NEN Boston, Mass.) was measured using a scintillation proximity assay (SPA) as previously described (Cox, et. al., Mol. Pharmacol., 59, 2001, 707-15). For each assay point, 2 μg of membrane was preincubated for 30 min at room temperature with 200 μg wheat germ agglutinin-coated SPA beads (WGA-SPA; Amersham, Arlington Heights, Ill.) in SPA binding buffer (50 mM HEPES, 10 mM MgCl2, 1 mM EDTA, 100 mM NaCl, 0.1% BSA, pH 7.6). The beads and membranes were transferred to a 96-well Isoplate (Wallac, Gaithersburg, Md.) and incubated with 10 μM guanosine 5′-diphosphate (GDP) in the presence or absence of 2 nM MIP-30 and/or compounds for 60 min at room temperature. The incubation continued for another 60 min. following the addition of 0.1 nM [^35S]GTPγS. Membrane-bound [^35S]GTPγS was measured using a 1450 Microbeta Trilux counter (Wallac, Gaithersburg, Md.).

Row | Structure (SMILES) | Ki (hCXCR2) [nM] | Ki (hCXCR1) [nM] | EC50 (CCR7) [nM]
1 | CC(C)c1coc([C@H](NC2=NS(=O)(=O)N=C2Nc2ccc(Br)c(C(=O)N(C)C)c2O)C(C)(C)C)c1 [Example 56] | 7 | 4 | –
2 | CCN(CC)S(=O)(=O)c1scc(NC2=NS(=O)(=O)N=C2N[C@@H](c2ccc(C)o2)C(C)(C)C)c1O [Example 2065] | – | – | 13
3 | Cc1ccc([C@H](NC2=NS(=O)(=O)N=C2Nc2csc(S(=O)(=O)N3CCOCC3)c2O)C(C)(C)C)o1 [Example 2066] | – | – | 16
4 | CCC(C)(C)[C@@H](NC1=NS(=O)(=O)N=C1Nc1cccc(C(=O)N(C)C)c1O)c1ccc(C)o1 [Example 2106] | – | – | 12

Further lines, results first:

Row | Ki (hCXCR2) [nM] | Ki (hCXCR1) [nM] | EC50 (CCR7) [nM] | Structure (SMILES)
5 | 3.5 | 123 | – | CC[C@@H](Nc1n[s+]([O-])nc1Nc1cccc(C(=O)N(C)C)c1O)c1cc(C(C)C)co1 (stereo partly drawn) [Example 201.1]
6 | 2.7 | 50 | – | Cc1cc([C@H](Nc2n[s+]([O-])nc2Nc2cccc(C(=O)N(C)C)c2O)C(C)C)oc1C (stereo partly drawn) [Example 201.9]
